Consider 3 molecules from patent publication US7820795B2, “Lactobacillus fermentum N-desoxyribosyl transferases and the use thereof for enzymatic synthesis of 2′, 3′—didesoxynucleosides and 2′,3′- didehydro-2′,3′- didesoxynucleosides” (Institut Pasteur, priority 2004, dated 2010).

Experiment [1] concerns HIV (human immunodeficiency virus). To be noted: cited from earlier work.
In experiment [2] the target is T1, Lactobacillus fermentum N-deoxyribosyl transferase (NTD, LF), native/wild type, SEQ ID No. 2 (Limosilactobacillus fermentum, UniProt Q6YNI5).
T1 construct: crude extract or purified
T1 sequence (Q6YNI5 1-168): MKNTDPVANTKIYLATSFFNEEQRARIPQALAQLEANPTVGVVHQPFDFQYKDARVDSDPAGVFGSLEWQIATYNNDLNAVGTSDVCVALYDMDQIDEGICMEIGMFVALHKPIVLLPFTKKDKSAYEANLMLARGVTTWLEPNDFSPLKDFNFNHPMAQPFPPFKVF
In words: Enzymatic activity tests (dT+C, ddT+C and d4T+C reactions), native enzyme LF. To be noted: deoxyribosyl donor + C (cytosine). Type of experiment: biochemical. Here is the method: 50 μl of enzymatic extract is added to 200 μl of 100 mM citrate buffer, pH 6.44, in the presence of 3 mM ddU or dU final and of 1 mM C final for the strain PAK9, the whole is incubated at 37° C. The progress of the reaction is monitored by TLC (silica; eluent: MeOH—CH2Cl2 (20/80)). […] The disappearance of the substrates and the formation of the products were also quantified by HPLC analysis. The different products are separated by analytical HPLC with a reversed-phase column (100-5C18) using a flow rate of 1 ml/min and a linear gradient of 5-25% CH3CN in a 10 mM triethyl ammonium acetate buffer at pH 7.5 for 20 minutes.
were used as primer in an amplification reaction under standard conditions using the ntd gene of L. fermentum cloned in pSU19 (pLF6) as DNA matrix. The amplification product was digested by the restriction enzymes Nde1 and BamH1 for 2 hours at 37° C., purified on agarose gel and inserted into the plasmid pET24a digested by the same enzymes then the ligation mixture is used to transform the strain β 2033. The plasmid DNA from the colonies was prepared and digested by the enzymes Nde1 and BamH1. […]
(§1) The cells are then centrifuged for 15′ at 4000 rpm at 4° C., washed in 50 ml of phosphate buffer then the pellet obtained after centrifugation is preserved overnight at −20° C. […] The fractions are then analyzed by SDS-PAGE gel and the enzymatic activity determined. […] The protein concentration is determined by measuring the OD at 280 nm. […]
The enzymatic activities of the native and mutant N-deoxyribosyl transferases of L. leichmannii (LL and LL G9S) and of L. fermentum (LF and LFA15T) in the exchange reactions dT+C ? dC+T, ddT+C ? ddC+T and d4T+C ? d4C+T were evaluated starting from crude extracts or purified proteins.
These different values were measured according to the protocol described in the literature [P A Kaminski (2002) “Functional cloning, heterologous expression and purification of two different N-deoxyribosyl transferases from Lactobacillus helveticus” J. Biol. Chem; vol. […]

Experiment [3] addresses T2, Lactobacillus fermentum N-deoxyribosyl transferase (NTD) variant LFA15T, mutation A15T, SEQ ID No. 4 (Limosilactobacillus fermentum, UniProt Q6YNI5, A15T).
T2 construct: crude extract or purified
T2 sequence (Q6YNI5 1-168 A15T): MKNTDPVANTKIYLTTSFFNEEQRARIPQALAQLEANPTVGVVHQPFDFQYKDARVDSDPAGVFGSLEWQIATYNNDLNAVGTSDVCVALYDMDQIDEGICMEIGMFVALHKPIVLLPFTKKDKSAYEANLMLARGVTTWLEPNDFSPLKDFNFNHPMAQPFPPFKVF
In words: Enzymatic activity tests (dT+C, ddT+C and d4T+C reactions), mutated enzyme LFA15T. To be noted: mutant LFA15T; deoxyribosyl donor + C (cytosine). The experiment is classed as biochemical. Here is the method:
The sequencing of the plasmids present in the selected transformants of PAK 9 made it possible to identify a mutation in the sequence (ntd) having the effect of substituting a residue T for the residue A in position 15 in the corresponding protein sequence (SEQ ID No. 2) (mutation called A15T).
50 μl of enzymatic extract is added to 200 μl of 100 mM citrate buffer, pH 6.44, in the presence of 3 mM ddU or dU final and of 1 mM C final for the strain PAK9, the whole is incubated at 37° C. The progress of the reaction is monitored by TLC (silica; eluent: MeOH—CH2Cl2 (20/80)). […] The disappearance of the substrates and the formation of the products were also quantified by HPLC analysis. […]
as §1
The enzymatic activities of the native and mutant N-deoxyribosyl transferases of L. leichmannii (LL and LL G9S) and of L. fermentum (LF and LFA15T) in the exchange reactions dT+C ? dC+T, ddT+C ? ddC+T and d4T+C ? d4C+T were evaluated starting from crude extracts or purified proteins. […]

As for `Nc1ncnc2c1ncn2[C@H]1CC[C@@H](CO)O1` [ddA, 2′,3′-dideoxyadenosine], the “inhibition of replication of HIV” value in experiment [1] is reported as “effectively inhibit the replication of HIV”.

On to `Cc1cn([C@H]2C=C[C@@H](CO)O2)c(=O)[nH]c1=O` [d4T, reference compound], for which the Kcat in experiment [2] came to 0.56 µmol/s/µg.

Regarding `Cc1cn([C@H]2CC[C@@H](CO)O2)c(=O)[nH]c1=O` [ddT], the Kcat in experiment [2] turned out to be 0.038 µmol/s/µg; in experiment [3], 0.156 µmol/s/µg.
